This note sets out measurements from patent US20240299486A1, “ADDRESSING INJECTION SITE REACTIONS ASSOCIATED WITH THE ADMINISTRATION OF ELAMIPRETIDE” (STEALTH BIOTHERAPEUTICS INC., priority 2022, published 2024).

Entries after “also recorded” stand apart in the source; their conditions may differ.

In assay [1] the test system is healthy subjects. The assay can be described thus: Phase 1 crossover study: self-assessed injection site reactions. The class given is in vivo, human. The following applies: 60 mg SQ elamipretide with or without the intervention, across all timepoints, all participants, n = 80. How it is done:
(§1) • This Phase 1, open-label, 6-arm crossover study included 10 healthy subjects ≥18 and ≤65 years of age. • All subjects received 60 mg of SQ elamipretide to alternating quadrants of the abdomen on each of 6 occasions (FIG. 3), with or without the interventions listed in Table 2. • For each treatment arm, ISR clinical and self-assessments were performed pre-elamipretide administration and at 0.5, 1, 2, 4, 6, 12, 24, and 48 hours after each elamipretide dose. • Blood samples for plasma concentrations of elamipretide and its metabolites were also collected pre-dose and at 0.25, 0.5, 1, 2, 4, and 6 hours post-elamipretide dose. • Primary endpoints consisted of comparisons of the grading from the clinical assessments and the self-assessments of each ISR parameter following administration of elamipretide with each separate intervention versus that of elamipretide alone. • Secondary endpoints consisted of comparison of various pharmacokinetic (PK) parameters and adverse events following administration of elamipretide with each separate intervention versus that of elamipretide alone.
(§2) After the screening period (up to 28 days) in this phase 1, open-label, 4-week, 6-part, crossover study, all eligible subjects received 60 mg (0.75 mL) of SC elamipretide to alternating quadrants of the abdomen on each of 6 occasions, with or without potential ISR interventions. The first treatment arm (Arm 1) commenced on Day 1 with administration of elamipretide only, followed by the remaining treatment arms (Arms 2-6) with the following potential mitigations: mometasone furoate, 0.1% ointment, applied once under a hydrocolloid occlusive dressing (DuoDERM Extra Thin) 7 days prior to elamipretide administration (Arm 2); ice application at the elamipretide injection site 5 minutes pre- and post-drug administration (Arm 3); tacrolimus 0.1% ointment applied 15 minutes pre-drug dosing (Arm 4); doxepin 5% cream applied 15 minutes pre-elamipretide administration (Arm 5); and diphenhydramine 50 mg orally taken 2 hours prior to administration (Arm 6). For each treatment arm, blood samples for plasma concentrations of elamipretide and its metabolites were collected pre-dose and at 0.25, 0.5, 1, 2, 4, and 6 hours post-elamipretide dose. Vital signs were recorded pre-dose and at 0.5 and 6 hours post-elamipretide administration. ISR clinical and self-assessments were performed pre-elamipretide administration and at 0.5, 1, 2, 4, 6, 12, 24, and 48 hours after each elamipretide dose. Injection sites were photographed at 0.5, 1, 2, 4, and 12 hours post-elamipretide dose.
(§3) The primary endpoints of this study were comprised of the following efficacy measures: clinical assessments and subject self-assessments. Specifically, the primary endpoints consisted of comparisons of the grading of each ISR parameter following administration of elamipretide with each separate intervention versus the grading of each ISR parameter following administration of elamipretide alone. For clinical assessments, the clinical staff used a standard procedure adapted from the Division of Aids Table for Grading the Severity of Adult and Pediatric Adverse Events to score pain, erythema, induration, and pruritus using a 4-point scale based on severity (0=None, 1=Mild, 2=Moderate, 3=Severe, 4=Potentially Life Threatening). The self-assessments were based on a questionnaire to determine how bothered the patient was following each injection of elamipretide and included the following parameters: pain, burning sensation, cold sensation, itching, redness, swelling, and bruising.
(§4) All statistical analyses were performed using SAS GRID Linux/SAS Studio (Version 9.4, or higher). PK parameters for elamipretide and its metabolites, M1 and M2, were summarized using descriptive statistics.

The subject of assay [2] is healthy subjects. The assay can be described thus: Phase 1 crossover study: clinically assessed injection site reactions. The following applies: for Clinically assessed Erythema or redness, (%) of Reported Reactions / Clinically assessed Erythema or redness, Number of Reported Reactions / Clinically assessed Induration or swelling, (%) of Reported Reactions / Clinically assessed Induration or swelling, Number of Reported Reactions / Clinically assessed Pain or tenderness, (%) of Reported Reactions / Clinically assessed Pain or tenderness, Number of Reported Reactions / Clinically assessed Pruritis, (%) of Reported Reactions / Clinically assessed Pruritis, Number of Reported Reactions: 60 mg SQ elamipretide with or without the intervention, across all timepoints, all participants, n = 80; for Overall effect of the intervention on ISRs compared to elamipretide alone: clinical and self-assessments, 60 mg SQ elamipretide, vs Arm 1 (no intervention). The protocol:
as §1, §2, §3, §4

The target in a further assay is T1, MRGPRX2 receptor (Homo sapiens, UniProt Q96LB1).
T1 construct: host or cells: Chem-1 cells (G418-selected)
T1 sequence (Q96LB1 1-330): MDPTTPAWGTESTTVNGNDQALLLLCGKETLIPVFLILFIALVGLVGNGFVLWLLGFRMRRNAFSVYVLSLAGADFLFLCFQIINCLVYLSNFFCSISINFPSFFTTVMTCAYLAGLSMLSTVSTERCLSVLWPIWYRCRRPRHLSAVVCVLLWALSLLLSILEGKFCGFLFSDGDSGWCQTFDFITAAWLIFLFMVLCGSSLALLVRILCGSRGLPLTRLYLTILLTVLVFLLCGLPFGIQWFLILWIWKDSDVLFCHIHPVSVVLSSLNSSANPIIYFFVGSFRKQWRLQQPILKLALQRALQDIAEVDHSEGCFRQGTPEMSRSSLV
The assay can be described thus: Fluo-4 calcium assay in MRGPRX2 expressing Chem-1 cells. It is filed as cell-based.

Where [3] appears, read: clinical assessment, vs elamipretide alone.

Take `C[C@@H]1C[C@H]2[C@@H]3CCC4=CC(=O)C=C[C@]4(C)[C@@]3(Cl)[C@@H](O)C[C@]2(C)[C@@]1(OC(=O)c1ccco1)C(=O)CCl` [Mometasone furoate]: in the assay with healthy subjects [1], the “Self-assessed Bruising, (%) of Reported Reactions” value (“Self-assessed Bruising, (%)” below) is “(1.3) %”; the “Self-assessed Bruising, Number of Reported Reactions” value (shortened to “Self-assessed Bruising, Number”) stood at 1; the “Self-assessed Burning sensation, (%) of Reported Reactions” value (“Self-assessed Burning sensation, (%)” below) is listed as “(8.8) %”; the “Self-assessed Burning sensation, Number of Reported Reactions” value (“Self-assessed Burning sensation, Number” below) amounted to 7. Further, in the assay on healthy subjects [1], the “Self-assessed Cold Sensation, Number of Reported Reactions” value (shortened to “Self-assessed Cold Sensation, Number”) is given as 0.0; the “Self-assessed Itching, (%) of Reported Reactions” value (from here on “Self-assessed Itching, (%)”) is reported as “(6.3) %”; the “Self-assessed Itching, Number of Reported Reactions” value (shortened to “Self-assessed Itching, Number”) was found to be 5; the “Self-assessed Pain, (%) of Reported Reactions” value (shortened to “Self-assessed Pain, (%)”) is on record as “(8.8) %”. In addition, in the assay on healthy subjects [1], the “Self-assessed Pain, Number of Reported Reactions” value (“Self-assessed Pain, Number” for short) amounted to 7; the “Self-assessed Redness, (%) of Reported Reactions” value (shortened to “Self-assessed Redness, (%)”) was “(41.3) %”; the “Self-assessed Redness, Number of Reported Reactions” value (“Self-assessed Redness, Number” below) is recorded as 33; the “Self-assessed Swelling, (%) of Reported Reactions” value (“Self-assessed Swelling, (%)” for short) is given as “(11.3) %”. Moreover, the “Self-assessed Swelling, Number of Reported Reactions” value (“Self-assessed Swelling, Number” below) in the assay on healthy subjects [1] was 9. For the same molecule, in the assay on healthy subjects [2], the “Clinically assessed Erythema or redness, (%) of Reported Reactions” value is “(37.5) %”; the “Clinically assessed Erythema or redness, Number of Reported Reactions” value is given as 30; the “Clinically assessed Induration or swelling, (%) of Reported Reactions” value is “(10.0) %”; the “Clinically assessed Induration or swelling, Number of Reported Reactions” value worked out at 8. In the assay with healthy subjects [2], the “Clinically assessed Pain or tenderness, (%) of Reported Reactions” value was “(8.8) %”; the “Clinically assessed Pain or tenderness, Number of Reported Reactions” value was determined as 7; the “Clinically assessed Pruritis, (%) of Reported Reactions” value (from here on “Clinically assessed Pruritis, (%)”) was “(2.5) %”; the “Clinically assessed Pruritis, Number of Reported Reactions” value (from here on “Clinically assessed Pruritis, Number”) is 2. Moreover, in the assay with healthy subjects [2], the “Overall effect of the intervention on ISRs compared to elamipretide alone” value (“Overall effect … compared to elamipretide alone” for short) is “most reduced; also recorded: favorably mitigate”. Moreover, the “Overall effect … compared to elamipretide alone” value in the assay with healthy subjects [2] (listed as mometasone furoate ointment) is given as “Improvement”. In the assay on healthy subjects [2] (setting [3]), the “incidence of induration at 0.5 hours post-elamipretide dose” value was “significantly reduced incidence”, the “incidence of induration at 1 hour post-elamipretide dose” value is given as “Trends to significance in reduction” and the “pruritus at 0.5 hours post-dose” value is “Trends to significance in reduction”.

In the case of `CN(C)CCC=C1c2ccccc2COc2ccccc21` [Doxepin], in the assay with healthy subjects [1], the “Self-assessed Bruising, (%)” value was “(0.0) %”; the “Self-assessed Bruising, Number” value turned out to be 0; the “Self-assessed Burning sensation, (%)” value is recorded as “(7.5) %”; the “Self-assessed Burning sensation, Number” value turned out to be 6. In the assay on healthy subjects [1], the “Self-assessed Cold Sensation, Number” value came to 0.0; the “Self-assessed Itching, (%)” value was “(12.5) %”; the “Self-assessed Itching, Number” value was 10; the “Self-assessed Pain, (%)” value was “(8.8) %”. In the assay on healthy subjects [1], the “Self-assessed Pain, Number” value is recorded as 7; the “Self-assessed Redness, (%)” value is listed as “(35.0) %”; the “Self-assessed Redness, Number” value is 28; the “Self-assessed Swelling, (%)” value was “(21.3) %”. Also, in the assay with healthy subjects [1], the “Self-assessed Swelling, Number” value is on record as 17. For the same molecule, in the assay on healthy subjects [2], the “Clinically assessed Erythema or redness, (%) of Reported Reactions” value is “(27.5) %”; the “Clinically assessed Erythema or redness, Number of Reported Reactions” value is on record as 22; the “Clinically assessed Induration or swelling, (%) of Reported Reactions” value was “(21.3) %”; the “Clinically assessed Induration or swelling, Number of Reported Reactions” value is 17. Further, in the assay with healthy subjects [2], the “Clinically assessed Pain or tenderness, (%) of Reported Reactions” value was “(12.5) %”; the “Clinically assessed Pain or tenderness, Number of Reported Reactions” value came out at 10; the “Clinically assessed Pruritis, (%)” value is recorded as “(12.5) %”; the “Clinically assessed Pruritis, Number” value amounted to 10. Further, the “Overall effect … compared to elamipretide alone” value in the assay on healthy subjects [2] is “little impact”.

For the molecule `C=CC[C@@H]1/C=C(\C)C[C@H](C)C[C@H](OC)[C@H]2O[C@@](O)(C(=O)C(=O)N3CCCC[C@H]3C(=O)O[C@H](/C(C)=C/[C@@H]3CC[C@@H](O)[C@H](OC)C3)[C@H](C)[C@@H](O)CC1=O)[C@H](C)C[C@@H]2OC` [Tacrolimus], in the assay with healthy subjects [1], the “Self-assessed Bruising, (%)” value is reported as “(10.0) %”; the “Self-assessed Bruising, Number” value amounted to 8; the “Self-assessed Burning sensation, (%)” value is on record as “(1.3) %”; the “Self-assessed Burning sensation, Number” value is 1. In the assay on healthy subjects [1], the “Self-assessed Cold Sensation, Number” value is 0.0; the “Self-assessed Itching, (%)” value is “(15.0) %”; the “Self-assessed Itching, Number” value was determined as 12; the “Self-assessed Pain, (%)” value is “(3.8) %”. Besides, in the assay on healthy subjects [1], the “Self-assessed Pain, Number” value was determined as 3; the “Self-assessed Redness, (%)” value was “(25.0) %”; the “Self-assessed Redness, Number” value was found to be 20; the “Self-assessed Swelling, (%)” value is “(18.8) %”. Besides, the “Self-assessed Swelling, Number” value with healthy subjects [1] is recorded as 15. Besides, in the assay on healthy subjects [2], the “Clinically assessed Erythema or redness, (%) of Reported Reactions” value is reported as “(31.3) %”; the “Clinically assessed Erythema or redness, Number of Reported Reactions” value came to 25; the “Clinically assessed Induration or swelling, (%) of Reported Reactions” value is recorded as “(22.5) %”; the “Clinically assessed Induration or swelling, Number of Reported Reactions” value was 18. For the same molecule, in the assay with healthy subjects [2], the “Clinically assessed Pain or tenderness, (%) of Reported Reactions” value is on record as “(3.8) %”; the “Clinically assessed Pain or tenderness, Number of Reported Reactions” value turned out to be 3; the “Clinically assessed Pruritis, (%)” value is “(15.0) %”; the “Clinically assessed Pruritis, Number” value is listed as 12. Also, the “Overall effect … compared to elamipretide alone” value with healthy subjects [2] is reported as “little impact”. In addition, the “Overall effect … compared to elamipretide alone” value in the assay with healthy subjects [2] (listed as tacrolimus) was “most reduced”. In the assay with healthy subjects [2] (listed as tacrolimus ointment), the “Overall effect … compared to elamipretide alone” value is “Improvement”.

Regarding `CCNC(=O)[C@@H]1CCCN1C(=O)[C@H](CCCNC(=N)N)NC(=O)[C@H](CC(C)C)NC(=O)[C@@H](CC(C)C)NC(=O)[C@H](Cc1ccc(O)cc1)NC(=O)[C@H](CO)NC(=O)[C@H](Cc1c[nH]c2ccccc12)NC(=O)[C@H](Cc1c[nH]cn1)NC(=O)[C@@H]1CCC(=O)N1` [leuprolide], on MRGPRX2 receptor (Chem-1 cells, Fluo-4), the “activation of the MRGPRX2 expressing cells (calcium mobilization)” value was “dose dependent activation”.

Regarding `O=c1c(O)c(-c2ccc(O)c(O)c2)oc2cc(O)cc(O)c12` [quercetin, 3,3′,4′,5,7-pentahydroxyflavone], the “inhibition of the activation of the MRGPRX2 receptor caused by elamipretide” value at MRGPRX2 receptor (100 μM of elamipretide, various concentrations of quercetin) is recorded as “in a dose-dependent manner, inhibit the activation; also recorded: inhibits activation of MRGPRX2”.
